Reference: US20130202698A1 (NANJING SANHOME PHARMACEUTICAL CO., LTD., priority 2005, published 2013)
Read-outs that look alike come from different tables or passages of the source. Marks after values point to notes of the source that are not given here.

What was measured:
[1] = Acute toxicity in mice (LD50); conditions: mouse, in vivo
[2] = Phase II clinical trial, oral tablets, departments of stomatology, adverse events; type: in vivo, human; conditions: human phase II, oral, stomatology
Protocol: (§1) Double-blinded randomized controlled trials were carried out to compare the adverse events of oral levo-ornidazole with racemate treatment groups. Two separate studies were conducted for patients with infections from either department of stomatology or obstetrics/gynecology.

[3] = Phase II clinical trial, oral tablets, departments of obstetrics/gynecology, adverse events; type: in vivo, human; conditions: human phase II, oral, obstetrics/gynecology
Protocol: as §1

[4] = test system: Strychnine-induced convulsion; assay: Anticonvulsant effects on Strychnine-induced convulsion in mice; type: in vivo; conditions: n=10; for Convulsion Latency: Mean ± SD
Protocol: (§2) Mice are randomized into 4 treatment groups (n=10 with half male and half female): dextro- or levo-ornidazole (dosage 40, 80, 160 mg/kg), vehicle control group (15% propylene glycol in 0.9% sodium chloride, 20 mL/kg) and the positive control group. Animals are treated with known convulsion-inducing agents, followed by the drug or vehicle control given intravenously. The dose volume is 20 mL/kg with an infusion rate of 0.2 mL/10 seconds. The anticonvulsant effects are observed and recorded (see Tables 2-6).

[5] = test system: thiosemicarbazide-induced convulsion; assay: Anticonvulsant effects on thiosemicarbazide-induced convulsion in mice; type: in vivo; conditions: n=10; for Convulsion Latency / Time to Death: Mean ± SD
Protocol: as §2

glutamate = assay: Effects on excitatory neurotransmitter glutamate levels in mice brain; type: in vivo; conditions: FIG. 4
From the text: In another experiment, the effects on excitatory neurotransmitter levels by levo- and dextro-ornidazole were compared.

[6] = test system: spontaneous activities of mice; conditions: both, mouse, in vivo, iv
Protocol: Mice weighing 18-22 g, half male and half female, were placed in the laboratory 24 hours before the test to adapt to the environment. The room temperature was controlled at 24±2° C. Animals were fasted for 8 hours before testing, and then placed in a transparent cage. The number of spontaneous activities of mice was counted by an automatic device (model XZ-4 by Drug Research Institute of China Academy of Medical Sciences). Mice were pre-screened by counting their spontaneous activities for five minutes and unqualified mice were excluded. A total of 110 mice were selected and divided into 11 groups with 10 mice in each group.
Chlorpromazine (3 mg/kg) was used as the positive control. The dose volume was 0.2 mL/10 gram and infusion rate was 0.2 mL/10 seconds.

Purkinje cells = conditions: dog, in vivo, 200 mg/kg
Protocol: Male and female Beagle dogs were kept in laboratory conditions for 1 week to observe general health conditions. […] Animals were treated at dose of I.V. 200 mg/kg for ornidazole enantiomers, or 10 mL/kg for vehicle control for 2 weeks, then sacrificed for anatomical and pathological examinations.
Quantitative data were analyzed by group test and qualitative data by simplified direct probability method. A 10×10 area under low magnification was used to count cerebellar Purkinje cells.

[7] = rat, in vivo

For `Cc1ncc([N+](=O)[O-])n1CC(O)CCl` (racemic) [Racemic ornidazole, 1-(3-Chloro-2-hydroxypropyl)-2-methyl-5-nitroimidazole], which LD50 ([1]; intravenous injection) is on record?
Its LD50 is 306 mg/kg.

What about the LD50 ([1]; ip, intraperitoneal injection) of the same compound?
Its LD50 is 1120 mg/kg.

What about the LD50 ([1]; oral gavage) of the same compound?
The LD50 was 769 mg/kg.

And the “Bloating, # of Patients with AE” value [2]?
Its value is 1.

And the “Bloating, Incidence (%)” value [2]?
Its value is 0.71%.

And the “Constipation, # of Patients with AE” value [2]?
The value was 0.

What about the “Constipation, Incidence (%)” value [2] of the same compound?
Its value is 0.00%.

What about the “Drowsy, # of Patients with AE” value [2] of the same compound?
Its value is 3.

What about the “Drowsy, Incidence (%)” value [2] of the same compound?
The value was 2.13%.

What about the “Dry mouth, # of Patients with AE” value [2] of the same compound?
Its value is 1.

And the “Dry mouth, Incidence (%)” value [2]?
The value was 0.71%.

What about the “Headache, # of Patients with AE” value [2] of the same compound?
The value was 1.

And the “Headache, Incidence (%)” value [2]?
Its value is 0.71%.

And the “Hypersomnia, # of Patients with AE” value [2]?
Its value is 6.

And the “Hypersomnia, Incidence (%)” value [2]?
Its value is 4.26%.

And the “Hypodynamia, # of Patients with AE” value [2]?
Its value is 1.

What about the “Hypodynamia, Incidence (%)” value [2] of the same compound?
Its value is 0.71%.

And the “Loss of appetite, # of Patients with AE” value [2]?
Its value is 1.

What about the “Loss of appetite, Incidence (%)” value [2] of the same compound?
Its value is 0.71%.

What about the “Nausea, # of Patients with AE” value [2] of the same compound?
Its value is 4.

What about the “Nausea, Incidence (%)” value [2] of the same compound?
The value was 2.84%.

What about the “Palpitation, # of Patients with AE” value [2] of the same compound?
The value was 1.

What about the “Palpitation, Incidence (%)” value [2] of the same compound?
The value was 0.71%.

What about the “Pruritus, # of Patients with AE” value [2] of the same compound?
The value was 1.

And the “Pruritus, Incidence (%)” value [2]?
The value was 0.71%.

And the “Rash, # of Patients with AE” value [2]?
Its value is 2.

What about the “Rash, Incidence (%)” value [2] of the same compound?
Its value is 1.42%.

And the “Sourregurgitation, # of Patients with AE” value [2]?
Its value is 1.

What about the “Sourregurgitation, Incidence (%)” value [2] of the same compound?
The value was 0.71%.

What about the “Stomach discomfort, # of Patients with AE” value [2] of the same compound?
The value was 7.

What about the “Stomach discomfort, Incidence (%)” value [2] of the same compound?
The value was 4.96%.

What about the “Stupor, # of Patients with AE” value [2] of the same compound?
The value was 1.

And the “Stupor, Incidence (%)” value [2]?
The value was 0.71%.

What about the “Total incidence rate of adverse events” value [2] of the same compound?
The value was 17.73%.

What about the “Vertigo, # of Patients with AE” value [2] of the same compound?
Its value is 2.

And the “Vertigo, Incidence (%)” value [2]?
Its value is 1.42%.

What about the “Vomiting, # of Patients with AE” value [2] of the same compound?
Its value is 1.

And the “Vomiting, Incidence (%)” value [2]?
The value was 0.71%.

What about the “Patients with adverse events (total)” value ([2]; out of 139 (levo) / 141 (racemate) patients) of the same compound?
The value was 25 patients.

And the “Abdominal pain, # of Patients with AE” value [3]?
The value was 1.

And the “Abdominal pain, Incidence (%)” value [3]?
Its value is 0.70%.

What about the “Appetite drop, # of Patients with AE” value [3] of the same compound?
Its value is 2.

What about the “Appetite drop, Incidence (%)” value [3] of the same compound?
The value was 1.41%.

And the “Bitter taste, # of Patients with AE” value [3]?
Its value is 1.

And the “Bitter taste, Incidence (%)” value [3]?
Its value is 0.70%.

What about the “Bloating, # of Patients with AE” value [3] of the same compound?
The value was 3.

What about the “Bloating, Incidence (%)” value [3] of the same compound?
The value was 2.11%.

And the “Blurred vision, # of Patients with AE” value [3]?
Its value is 1.

What about the “Blurred vision, Incidence (%)” value [3] of the same compound?
Its value is 0.70%.

What about the “Breast tenderness, # of Patients with AE” value [3] of the same compound?
The value was 1.

What about the “Breast tenderness, Incidence (%)” value [3] of the same compound?
Its value is 0.70%.

What about the “Chest tightness, # of Patients with AE” value [3] of the same compound?
The value was 2.

What about the “Chest tightness, Incidence (%)” value [3] of the same compound?
Its value is 1.41%.

And the “Dazzle, # of Patients with AE” value [3]?
Its value is 1.

What about the “Dazzle, Incidence (%)” value [3] of the same compound?
Its value is 0.70%.

And the “Diarrhea, # of Patients with AE” value [3]?
Its value is 1.

What about the “Diarrhea, Incidence (%)” value [3] of the same compound?
The value was 0.70%.

What about the “Dizziness, # of Patients with AE” value [3] of the same compound?
The value was 4.

And the “Dizziness, Incidence (%)” value [3]?
The value was 2.82%.

What about the “Dry mouth, # of Patients with AE” value [3] of the same compound?
Its value is 1.

And the “Dry mouth, Incidence (%)” value [3]?
Its value is 0.70%.

And the “Headache, # of Patients with AE” value [3]?
Its value is 1.

And the “Headache, Incidence (%)” value [3]?
Its value is 0.70%.

What about the “Hypersomnia, # of Patients with AE” value [3] of the same compound?
Its value is 8.

What about the “Hypersomnia, Incidence (%)” value [3] of the same compound?
The value was 5.63%.

What about the “Hypodynamia, # of Patients with AE” value [3] of the same compound?
Its value is 2.

And the “Hypodynamia, Incidence (%)” value [3]?
Its value is 1.41%.

And the “Nausea, # of Patients with AE” value [3]?
Its value is 7.

What about the “Nausea, Incidence (%)” value [3] of the same compound?
Its value is 4.93%.

And the “Oral malodor, # of Patients with AE” value [3]?
Its value is 0.

And the “Oral malodor, Incidence (%)” value [3]?
Its value is 0.00%.

What about the “Rash, # of Patients with AE” value [3] of the same compound?
The value was 0.

And the “Rash, Incidence (%)” value [3]?
Its value is 0.00%.

What about the “Stomach ache, # of Patients with AE” value [3] of the same compound?
The value was 0.

And the “Stomach ache, Incidence (%)” value [3]?
The value was 0.00%.

What about the “Stomach discomfort, # of Patients with AE” value [3] of the same compound?
The value was 4.

What about the “Stomach discomfort, Incidence (%)” value [3] of the same compound?
Its value is 2.82%.

And the “Total incidence rate of adverse events” value [3]?
Its value is 19.72%.

And the “Vertigo, # of Patients with AE” value [3]?
The value was 8.

What about the “Vertigo, Incidence (%)” value [3] of the same compound?
Its value is 5.63%.

And the “Vomiting, # of Patients with AE” value [3]?
Its value is 1.

What about the “Vomiting, Incidence (%)” value [3] of the same compound?
The value was 0.70%.

What about the “Patients with adverse events (total)” value ([3]; out of 143 (levo) / 142 (racemate) patients) of the same compound?
Its value is 28 patients.

For `Cc1ncc([N+](=O)[O-])n1C[C@@H](O)CCl` [D-ornidazole, R-(+)-ornidazole], which “Convulsion Latency” value ([4]; 40 mg/kg i.v.) is on record?
The value was 6.0 ± 0.7 min.

What about the “Mortality Rate” value ([4]; 40 mg/kg i.v.) of the same compound?
The value was 10/10.

And the “Convulsion Latency” value ([4]; 80 mg/kg i.v.)?
The value was 8.0 ± 2.0 min.

And the “Mortality Rate” value ([4]; 80 mg/kg i.v.)?
The value was 7/10.

And the “Convulsion Latency” value ([4]; 160 mg/kg i.v.)?
The value was 9.1 ± 2.6 min.

And the “Mortality Rate” value ([4]; 160 mg/kg i.v.)?
The value was 1/10**.

And the “Convulsion Latency” value ([5]; 40 mg/kg i.v.)?
Its value is 94.3 ± 25.1 min.

And the “Time to Death” value ([5]; 40 mg/kg i.v.)?
The value was 153.9 ± 43.7 min.

What about the “Convulsion Latency” value ([5]; 80 mg/kg i.v.) of the same compound?
Its value is 121.8 ± 16.8 min.

What about the “Time to Death” value ([5]; 80 mg/kg i.v.) of the same compound?
The value was 213.6 ± 56.5 min.

What about the “Mortality Rate” value ([5]; 160 mg/kg i.v.) of the same compound?
Its value is 2/10**.

What about the “Rate of Convulsion” value ([5]; 160 mg/kg i.v.) of the same compound?
Its value is 3/10**.

And the “Effect on glutamate levels in cerebrum and cerebellum” value (glutamate)?
Its value is “significantly decreased”.

What about the “Spontaneous Activities (per 5 min)” value ([6]; 40 mg/kg, 0.5 h) of the same compound?
The value was 52 ± 23 per 5 min.

And the “Spontaneous Activities (per 5 min)” value ([6]; 40 mg/kg, 1 h)?
Its value is 44 ± 19 per 5 min.

And the “Spontaneous Activities (per 5 min)” value ([6]; 40 mg/kg, 2 h)?
The value was 35 ± 20 per 5 min.

What about the “Spontaneous Activities (per 5 min)” value ([6]; 40 mg/kg, 3 h) of the same compound?
Its value is 47 ± 33 per 5 min.

And the “Spontaneous Activities (per 5 min)” value ([6]; 40 mg/kg, 4 h)?
The value was 62 ± 31 per 5 min.

And the “Spontaneous Activities (per 5 min)” value ([6]; 80 mg/kg, 0.5 h)?
Its value is 25 ± 15 per 5 min.

And the “Spontaneous Activities (per 5 min)” value ([6]; 80 mg/kg, 1 h)?
The value was 16 ± 21 per 5 min.

And the “Spontaneous Activities (per 5 min)” value ([6]; 80 mg/kg, 2 h)?
The value was 17 ± 15 per 5 min.

And the “Spontaneous Activities (per 5 min)” value ([6]; 80 mg/kg, 3 h)?
The value was 27 ± 17 per 5 min.

What about the “Spontaneous Activities (per 5 min)” value ([6]; 80 mg/kg, 4 h) of the same compound?
The value was 34 ± 17 per 5 min.

And the “Spontaneous Activities (per 5 min)” value ([6]; 160 mg/kg, 0.5 h)?
The value was 0 ± 0 per 5 min.

What about the “Spontaneous Activities (per 5 min)” value ([6]; 160 mg/kg, 1 h) of the same compound?
The value was 0 ± 0 per 5 min.

And the “Spontaneous Activities (per 5 min)” value ([6]; 160 mg/kg, 2 h)?
The value was 0 ± 0 per 5 min.

And the “Spontaneous Activities (per 5 min)” value ([6]; 160 mg/kg, 3 h)?
Its value is 3 ± 3 per 5 min.

And the “Spontaneous Activities (per 5 min)” value ([6]; 160 mg/kg, 4 h)?
Its value is 5 ± 5 per 5 min.

What about the Purkinje cell morphology (Purkinje cells) of the same compound?
The Purkinje cell morphology was “Purkinje cell denaturing and morphology change”.

What about the “Distribution in different region of brain, levo- vs dextro-ornidazole” value [7] of the same compound?
The value was “Similar”.

What about the “Plasma protein binding, levo- vs dextro-ornidazole” value (plasma protein) of the same compound?
Its value is “Similar”.
